± gives the standard deviation of the averaged measurements.
How the values were obtained:
[1] = tested on: HSC2 (primary human Schwann cells); assay: % inhibition of CellTiter-Glo viability at highest tested concentration (72 h), relative to DMSO and benzethonium chloride controls; higher = more inhibition
Summary of the method: (§1)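 After seeding 750–1000 cells per well of MPNST cell lines or primary human Schwann cells into 384-well plates preprinted with each compound at five concentrations in 10-fold steps, plates were kept 72 h at 37 °C, 5% CO2. Viability was read as CellTiter-Glo ATP luminescence relative to vehicle and positive-control wells, with duplicates averaged where present. The data were fitted with four-parameter logistic models. Drug sensitivity score and relative IC50, censored at the top concentration, derive from the fits, and percent inhibition refers to the top concentration.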

STS26T [2] = assay: as above
Summary of the method: as §1

HS-Sch-2 [3] = assay: as above
Summary of the method: as §1

ST8814 [4] = assay: as above
Summary of the method: as §1

S1507-2 [5] = assay: as above
Summary of the method: as §1

YST-1 [6] = assay: as above
Summary of the method: as §1

[7] = tested on: HSC1 (primary human Schwann cells); assay: as above
Summary of the method: as §1

HS-PSS [8] = assay: as above
Summary of the method: as §1

S462 [9] = assay: as above
Summary of the method: as §1

[10] = tested on: HSC2 (primary human Schwann cells); assay: drug sensitivity score (DSS, CellTox-Green cytotoxicity, 72 h) (DSS (dimensionless)); higher = more cytotoxic; extreme values may be limits of the assay
Summary of the method: (§2)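 For 72 h at 37 °C, MPNST cell lines and primary human Schwann cells were exposed in 384-well plates to five 10-fold compound dilutions. CellTox-Green, added before seeding at a final 1:1000 dilution, gave fluorescence from DNA released by disrupted cells. Signals were scaled to vehicle and positive-control wells, cultures failing plate quality control were left out, and four-parameter logistic fits were applied. Relative IC50 and drug sensitivity score were derived from the fits, with IC50 censored at the top concentration.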

STS26T [11] = assay: as above
Summary of the method: as §2

ST8814 [12] = assay: as above
Summary of the method: as §2

S1507-2 [13] = assay: as above
Summary of the method: as §2

[14] = tested on: HSC1 (primary human Schwann cells); assay: as above
Summary of the method: as §2

HS-PSS [15] = assay: as above
Summary of the method: as §2

[16] = tested on: HSC2 (primary human Schwann cells); assay: drug sensitivity score (DSS, CellTiter-Glo viability, 72 h) (DSS (dimensionless)); higher = more sensitive; extreme values may be limits of the assay
Summary of the method: as §1

STS26T [17] = assay: as above
Summary of the method: as §1

HS-Sch-2 [18] = assay: as above
Summary of the method: as §1

ST8814 [19] = assay: as above
Summary of the method: as §1

S1507-2 [20] = assay: as above
Summary of the method: as §1

YST-1 [21] = assay: as above
Summary of the method: as §1

[22] = tested on: HSC1 (primary human Schwann cells); assay: as above
Summary of the method: as §1

HS-PSS [23] = assay: as above
Summary of the method: as §1

S462 [24] = assay: as above
Summary of the method: as §1

Compound | % inhibition [1] [%] | % inhibition (STS26T [2]) [%] | % inhibition (HS-Sch-2 [3]) [%] | % inhibition (ST8814 [4]) [%] | % inhibition (S1507-2 [5]) [%] | % inhibition (YST-1 [6]) [%] | % inhibition [7] [%] | % inhibition (HS-PSS [8]) [%] | % inhibition (S462 [9]) [%] | drug sensitivity score [10] | drug sensitivity score (STS26T [11]) | drug sensitivity score (ST8814 [12]) | drug sensitivity score (S1507-2 [13]) | drug sensitivity score [14] | drug sensitivity score (HS-PSS [15]) | drug sensitivity score [16] | drug sensitivity score (STS26T [17]) | drug sensitivity score (HS-Sch-2 [18]) | drug sensitivity score (ST8814 [19]) | drug sensitivity score (S1507-2 [20]) | drug sensitivity score (YST-1 [21]) | drug sensitivity score [22] | drug sensitivity score (HS-PSS [23]) | drug sensitivity score (S462 [24])
O=C(Nc1ccc2[nH]nc(-c3ccncc3)c2c1)[C@@H]1CCN(CC(=O)N2CCN(c3ccc(-c4ncccn4)cc3)CC2)C1 (max concentration tested 10000 nM) | 51.2 | 40.4 | 66.4 | 91.2 | 77.5 ± 2.5 | 31.8 | 61.3 | 45.2 | 97 ± 2.1 | 0.0074 | 1.59 | 10.8 | 9.36 ± 3.5 | 0 | 0 | 10.6 | 4.44 | 8.78 | 16.7 | 10.7 ± 1.2 | 1.98 | 10.4 | 5.75 | 20.4 ± 0.4
CCc1c2c(nc3ccc(OC(=O)N4CCC(N5CCCCC5)CC4)cc13)-c1cc3c(c(=O)n1C2)COC(=O)[C@]3(O)CC [Irinotecan] (max concentration tested 10000 nM) | 72.5 | 76.6 | 81.5 | 93.9 | 75.8 ± 0.88 | 71.2 | 63.6 | 58.3 | 98.1 ± 0.28 | 5.29 | 3.22 | 8.16 | 2.16 ± 1.5 | 6.2 | 3.15 | 8.79 | 6.61 | 8.31 | 9.68 | 6.91 ± 0.48 | 12 | 9.72 | 3.76 | 9.83 ± 0.34
Cc1ccc(Nc2nccc(N(C)c3ccc4c(C)n(C)nc4c3)n2)cc1S(N)(=O)=O [Pazopanib] (max concentration tested 10000 nM) | 15.2 | 7.27 | 20.7 | -2.02 | 9.04 ± 7 | 0.99 | 20.7 | 42.6 | -0.988 ± 9.1 | 0 | 0 | 0 | 0 | 0 | 0 | 0.68 | 0 | 1.37 | 0 | 0.325 ± 0.46 | 0 | 2.03 | 6.09 | 0
C#Cc1cccc(Nc2ncnc3cc(OCCOC)c(OCCOC)cc23)c1 [Erlotinib] (max concentration tested 10000 nM) | 74.7 | 33.2 | 55.9 | 31.1 | 26.3 ± 10 | 56.7 | 73.1 | 48.6 | 54.5 ± 2.7 | 0 | 0 | 0 | 0 | 0 | 0 | 5.39 | 2.29 | 5.08 | 1.41 | 1.85 ± 2 | 5.25 | 5.2 | 3.63 | 3.86 ± 0.29
C[C@H]1C[C@@H]2[C@H]([C@@H](O)C[C@@]3(C)[C@H]2CC[C@]3(O)C(=O)CO)[C@@]2(C)C=CC(=O)C=C12 [Methylprednisolone] (max concentration tested 10000 nM) | 3.94 | 4.35 | 7.62 | 22.4 | 17.3 ± 7 | 19.3 | 7.99 | 3.22 | 4.77 ± 4.3 | 0 | 0 | 0 | 0 | 0 | 0 | 0 | 0 | 0.61 | 4.82 | 3.26 ± 4.4 | 0.96 | 0 | 0 | 0
O=C(Cc1ccc(-c2ccc(OCCN3CCOCC3)cc2)cn1)NCc1ccccc1 [KX2-391] (max concentration tested 10000 nM) | 86.6 | 92.4 | 93.2 | 83.5 | 75.8 ± 1.3 | 80.7 | 75.7 | 76.6 | 94.784 ± 0.091 | 13.8 | 32.1 | 30.1 | 18.5 ± 2.1 | 11.4 | 0 | 22.7 | 29.4 | 28.3 | 25.2 | 22.6 ± 0.24 | 24 | 21.4 | 15.7 | 28.72 ± 0.17
CNC(=O)c1ccc(N2C(=S)N(c3ccc(C#N)c(C(F)(F)F)c3)C(=O)C2(C)C)cc1F [Enzalutamide] (max concentration tested 10000 nM) | -3.12 | 3.2 | -3.43 | 11.6 | 14.2 ± 18 | 4.16 | 14.3 | 7.35 | -3 ± 1.3 | 0 | 0 | 0 | 2.11 ± 3 | 0 | 0 | 0 | 0 | 0 | 0.0064 | 1.03 ± 1.4 | 0 | 0.165 | 0 | 0
OC[C@H]1O[C@@H](n2cnc3c2N=CNC[C@H]3O)C[C@@H]1O [Pentostatin] (max concentration tested 10000 nM) | 0.65 | -3.81 | 8.51 | -0.684 | -4.44 ± 9.6 | 9.08 | 4.07 | 6.06 | -16.1 ± 7.5 | 0 | 0 | 0 | 0 | 0 | 0 | 0 | 0 | 0 | 0 | 0 | 1.08 | 0 | 0 | 0
